“Also recorded” adds a separate entry of the source. Like-named read-outs stand apart in the source and are kept apart here.
How the values were obtained:
[1] = tested on: GPR35; assay: DMR desensitization / antagonism mode against GPR35 agonist-induced DMR in HT29 cells; type: cell-based, human
[2] = target: hERG channel (Homo sapiens, UniProt Q12809); assay: Automated patch clamp recording of hERG tail current (IonWorks); conditions: hERG tail current ratio post/pre-compound, 50 uM
[3] = target: T1, GPR35 (Homo sapiens, UniProt Q9HC97); assay: Ca2+ mobilization assay (Fluo-4) in HEK-GPR35-Gqo5 cells; type: cell-based; conditions: for Ca2+ moblization (HEK-GPR35-Gqo5): HEK293 cells co-expressing GPR35 and Gqo5, Fluo-4, compounds 10 μM
T1 construct: myc; expressed in transfected cells; host or cells: HEK293, transient co-transfection (Lipofectamine LTX)
T1 sequence (Q9HC97 whole entry): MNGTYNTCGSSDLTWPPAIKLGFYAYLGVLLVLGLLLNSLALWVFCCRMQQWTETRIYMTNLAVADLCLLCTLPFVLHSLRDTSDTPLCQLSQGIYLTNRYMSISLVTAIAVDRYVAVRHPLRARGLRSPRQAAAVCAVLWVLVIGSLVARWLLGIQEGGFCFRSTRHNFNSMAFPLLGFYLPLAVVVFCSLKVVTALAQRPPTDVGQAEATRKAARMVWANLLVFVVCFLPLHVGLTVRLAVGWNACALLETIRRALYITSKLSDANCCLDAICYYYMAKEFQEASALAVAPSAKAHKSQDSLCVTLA

[4] = HT29 cells pretreated with compound, then GPR35 agonist
[5] = HT29, zaprinast 400 nM, U73122, cytochalasin D, Y27632 10 micromolar, CTX 1 microgram/ml, PTX 100 nanogram/ml

GPR35, sequence (Q9HC97 whole entry): as above
hERG channel, sequence (Q12809 whole entry): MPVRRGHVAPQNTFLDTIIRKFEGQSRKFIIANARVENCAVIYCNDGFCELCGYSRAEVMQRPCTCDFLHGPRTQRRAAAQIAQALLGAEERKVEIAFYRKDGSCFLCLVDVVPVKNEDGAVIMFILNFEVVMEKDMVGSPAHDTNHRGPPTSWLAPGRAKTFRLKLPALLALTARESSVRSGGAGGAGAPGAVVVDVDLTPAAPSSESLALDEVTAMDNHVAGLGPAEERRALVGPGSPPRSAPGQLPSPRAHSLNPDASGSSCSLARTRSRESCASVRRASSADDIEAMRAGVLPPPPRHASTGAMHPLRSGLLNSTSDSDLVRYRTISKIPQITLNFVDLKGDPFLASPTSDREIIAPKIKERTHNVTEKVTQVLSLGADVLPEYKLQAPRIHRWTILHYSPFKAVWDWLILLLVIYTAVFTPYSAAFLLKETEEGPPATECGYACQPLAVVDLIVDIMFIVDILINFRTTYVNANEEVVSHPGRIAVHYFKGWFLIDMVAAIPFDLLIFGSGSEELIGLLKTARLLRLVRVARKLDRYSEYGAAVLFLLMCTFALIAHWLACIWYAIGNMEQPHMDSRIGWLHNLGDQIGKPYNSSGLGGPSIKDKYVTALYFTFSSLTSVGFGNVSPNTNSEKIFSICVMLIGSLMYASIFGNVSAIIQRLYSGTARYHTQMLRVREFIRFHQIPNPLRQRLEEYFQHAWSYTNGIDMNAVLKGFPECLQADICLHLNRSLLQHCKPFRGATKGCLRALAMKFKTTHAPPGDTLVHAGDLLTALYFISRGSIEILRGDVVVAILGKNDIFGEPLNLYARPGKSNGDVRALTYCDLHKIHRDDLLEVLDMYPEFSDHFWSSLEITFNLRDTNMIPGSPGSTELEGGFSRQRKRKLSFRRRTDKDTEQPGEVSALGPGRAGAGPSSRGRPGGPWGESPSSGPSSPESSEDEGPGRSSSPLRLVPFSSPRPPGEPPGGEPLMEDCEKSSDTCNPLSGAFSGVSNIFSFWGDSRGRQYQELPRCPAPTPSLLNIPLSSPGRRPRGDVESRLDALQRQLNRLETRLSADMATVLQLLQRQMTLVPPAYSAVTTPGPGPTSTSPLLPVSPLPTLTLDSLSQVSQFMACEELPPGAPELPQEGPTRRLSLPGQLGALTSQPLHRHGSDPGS

Row | Molecule | Desenstization to GPR35 agonist [1, 4] | Electrophysiology (HEK-hERG) [2] | other results
1 | O=C(O)c1ccccc1Nc1ccc(CCc2ccc(Cl)c(Cl)c2)cc1 [PD-118057] | desenstized | activator | 
2 | N#CC(=Cc1ccc2[nH]ccc2c1)C(N)=C(C#N)C#N [AG370] | desenstized | inactive | 
3 | N#CC(C#N)=Cc1ccc(O)c(O)c1 [Tyrphostin 23] | desenstized |  | 
4 | N#CC(C#N)=C(N)/C(C#N)=C/c1ccc(O)cc1 [AG112] | desenstized |  | 
5 | cholera toxin |  |  | effect of pathway agent on the 6-bromo-3-methylthieno[3,2-b]thiophene-2-carboxylic acid DMR [1]: insensitive; effect of pathway agent pretreatment on the zaprinast DMR signal [1]: insensitive
6 | CC(C)(C)c1cc(C=C(C#N)C#N)cc(Br)c1O [AG1024] | desenstized |  | 
7 | N#CC(C#N)=Cc1cc(O)c(O)c(O)c1 [Tyrphostin 25] | desenstized | inactive | 
8 | CCN(CC)C(=O)/C(C#N)=C/c1cc(O)c(O)c([N+](=O)[O-])c1 [Entacapone] |  | inactive | 
9 | N#C/C(=C/c1ccc(O)c(O)c1)C(=O)NCc1ccccc1 [AG490] | desenstized |  | 
10 | O=C(O)Cc1ccccc1Nc1c(Cl)cccc1Cl [Diclofenac] | desenstized |  | Ca2+ moblization (HEK-GPR35-Gqo5) [3]: inactive
11 | N#CC(C#N)=Cc1cc(O)c(O)c([N+](=O)[O-])c1 [AG1288] | desenstized |  | 
12 | C[C@@H](N)[C@H]1CC[C@H](C(=O)Nc2ccncc2)CC1 [Compound Y27632, Y27632] |  |  | effect of pathway agent pretreatment on the zaprinast DMR signal [1, 5]: partially attenuated; effect of pathway agent on the 6-bromo-3-methylthieno[3,2-b]thiophene-2-carboxylic acid DMR ([1]; HT29 cells): partially attenuated
13 | N#CC(C#N)=Cc1ccc([N+](=O)[O-])c(O)c1 [AG126] | desenstized | inactive | 
14 | CCCCCCCCCCCCCc1c(C(=O)O)sc2c(Br)csc12 [Compound 17, 3-n-tridecyl-6-bromo-thieno[3,2-b]thiophene-2-carboxylic acid] |  | activator | Desenstization to GPR35 agonist [1]: desenstized
15 | CCCCCCCCCCc1c(C(=O)O)sc2c(Br)csc12 [Compound 18, 3-n-decyl-6-bromo-thieno[3,2-b]thiophene-2-carboxylic acid] | desenstized | activator | 
16 | C=C1[C@@H](C)[C@H]2[C@H](Cc3ccccc3)NC(=O)[C@]23[C@H](OC(C)=O)/C=C/[C@@](C)(O)C(=O)[C@@H](C)C/C=C/[C@H]3[C@@H]1O [cytochalasin D] |  |  | effect of pathway agent pretreatment on the zaprinast DMR signal [1, 5]: completely attenuated; also recorded: completely block; effect of pathway agent on the 6-bromo-3-methylthieno[3,2-b]thiophene-2-carboxylic acid DMR ([1]; HT29 cells): blocked
17 | CCNc1nc(C)nc2c1cnn2-c1ccc(C)cc1 [NSC1619] | inactive | activator | 
18 | COc1ccc2c(c1)CC[C@@H]1[C@@H]2CC[C@]2(C)[C@@H](NCCCCCCN3C(=O)C=CC3=O)CC[C@@H]12 [Compound U73122, U73122] |  |  | effect of pathway agent pretreatment on the zaprinast DMR signal [1, 5]: insensitive; effect of pathway agent on the 6-bromo-3-methylthieno[3,2-b]thiophene-2-carboxylic acid DMR ([1]; HT29 cells): insensitive
19 | Pertussis toxin |  |  | effect of pathway agent pretreatment on the zaprinast DMR signal [1, 5]: insensitive; effect of pathway agent on the 6-bromo-3-methylthieno[3,2-b]thiophene-2-carboxylic acid DMR ([1]; HT29 cells): insensitive
20 | NS(=O)(=O)c1cc(C(=O)O)c(NCc2ccco2)cc1Cl [Furosemdie] | desenstized |  | Ca2+ moblization (HEK-GPR35-Gqo5) [3]: active; Ca2+ mobilization signal in cells co-expressing GPR35 and Gqo5 ([3]; engineered HEK293, 10 μM): active
21 | CCCCCCCCCCC(=O)c1sc2c(Br)csc2c1Br [Compound 15, 3,6-dibromo-thieno[3,2-b]thiophene-2-undecanone] |  | inactive | 
22 | O=C(O)c1ccccc1Nc1ccccc1 [N-phenylanthranilic] | desenstized |  | 
23 | COc1cc(/C=C(\C#N)C(N)=O)cc(CSc2nc3ccccc3s2)c1O [AG825] | desenstized |  | 
